Results: patent publication US20210401730A1, “USE OF EXTRACTS OF AGAVE FOR A HAIR APPLICATION” (priority 2017, published 2021)
Like-named read-outs stand apart in the source and are kept apart here.

Tests used:
[1] = system: human umbilical vein endothelial cells (HUVEC); assay: Formation of microtubules (pseudo-tubes) by endothelial cells on matrigel; assay type: cell-based; details: for Results in % (formation of pseudo-tubes): 6 hours, control medium = 100
Protocol: In this experiment, the cells are human umbilical vein endothelial cells (HUVEC) cultured in M200 medium (Invitrogen M200500) on matrigel (BD Biosciences 354234) for 6 hours. The cells are either in the medium (control medium) or treated by suramin (negative control) or treated by VEGF (positive control) or treated by Metlin® or Metlos® inulins (at 0.1%). After 6 hours of incubation, the pseudo-tubes formed are observed under the microscope and images are taken at random to be subsequently quantified (total surface of the network) by image analysis.

[2] = system: EPCs (circulating endothelial progenitor cells) originating from human umbilical cord blood; assay: Migration of endothelial progenitor cells through insert membrane; assay type: cell-based; details: C+ medium + VEGF 10 ng/ml, 5 hours
Protocol: The study was carried out on EPCs (circulating endothelial progenitor cells) originating from human umbilical cord blood, cultured in EGM-2 medium (Endothelial Growth medium-2).
Before the treatment, the cells are starved in 0.2% EBM-2 medium of fetal calf serum (FCS). The cells are subsequently seeded in an insert containing EGM-2 medium with 0.2% FCS, immersed in a well containing the treatment: either EGM-2 medium 0.2% FCS (negative control), or EGM-2 medium 0.2% FCS plus VEGF at 10 ng/ml (positive control), or EGM-2 medium 0.2% FCS plus the Metlin® or Metlos® inulins at 0.5% or 1%. After 5 hours of incubation, the cells inside the inserts are eliminated and those that have migrated to the other side of the insert membrane are fixed with 4% paraformaldehyde for 10 min. The cells that have migrated are subsequently counted.

Compound | Number of branchings ([1]; C− 20 μM, 6 hours of incubation) | Results in % (formation of pseudo-tubes) ([1]; C− 20 μM) [%] | Number of cells (migrated) [2] | Results relative to C− [2] [%] | Number of branchings [1] | Results in % (formation of pseudo-tubes) ([1]; C+ 50 ng/ml) [%]
Cc1ccc(C(=O)Nc2ccc(S(=O)(=O)O)c3cc(S(=O)(=O)O)cc(S(=O)(=O)O)c23)cc1NC(=O)c1cccc(NC(=O)Nc2cccc(C(=O)Nc3cc(C(=O)Nc4ccc(S(=O)(=O)O)c5cc(S(=O)(=O)O)cc(S(=O)(=O)O)c45)ccc3C)c2)c1 [Suramin, suramin] | 0 | 0 |  |  |  | 
VEGF |  |  | 417 | 181 | 18 | 140
